The test deals with T1, truncated AtAPC2 (N-terminally truncated AtAPC2) (Arabidopsis thaliana, UniProt Q9FI43).
T1 construct: gene APC2; transmembrane carrier domain from residue 164 to C-terminus, EF-hand N-terminal domain removed, N-terminal His tag (pET16b), E. coli Rosetta 2 inclusion bodies, reconstituted in liposomes
T1 sequence (Q9FI43 164-487): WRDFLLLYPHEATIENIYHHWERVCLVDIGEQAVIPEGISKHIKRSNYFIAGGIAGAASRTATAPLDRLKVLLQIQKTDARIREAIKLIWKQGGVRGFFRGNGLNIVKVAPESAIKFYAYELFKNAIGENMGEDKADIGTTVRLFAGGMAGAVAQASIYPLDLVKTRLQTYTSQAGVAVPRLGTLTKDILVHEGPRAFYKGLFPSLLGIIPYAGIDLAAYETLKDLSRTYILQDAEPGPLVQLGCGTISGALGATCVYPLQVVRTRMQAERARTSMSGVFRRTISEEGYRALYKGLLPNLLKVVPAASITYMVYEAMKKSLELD
Nature of the test: radiolabelled uptake into proteoliposomes. It counts as biochemical. The following applies: pH 7.5, 30 °C, labelled compound.

The record followed here is article PMC4595200 (BMC Plant Biology, 2015).

Structures are written as SMILES.

As to `Nc1ncnc2c1ncn2[C@@H]1O[C@H](COP(=O)(O)OP(=O)(O)O)[C@@H](O)[C@H]1O` [ADP], the “radiolabelled uptake into proteoliposomes” value (ADP import / ATP export (ATP-loaded), 5 min) is “ADP/ATP exchange of both, full-length and truncated, AtAPC2 variants remained more or less unaltered”.
On to `Nc1ncnc2c1ncn2[C@@H]1O[C@H](COP(=O)(O)OP(=O)(O)OP(=O)(O)O)[C@@H](O)[C@H]1O` [ATP], for which the “radiolabelled uptake into proteoliposomes” value (ATP import / Pi export (Pi-loaded), 50 μM ATP) is given as “ATP uptake measurements verified that truncated AtAPC2 is functional”.
